According to patent publication US12550899B2, “Topramezone derivative and use thereof” (priority 2023, dated 2026):
Entries after “also recorded” stand apart in the source; their conditions may differ.

Assays:
Assay type in all cases: in vivo
Portulaca oleracea = assay: Laboratory bioactivity efficacy test 2.2 (foliar spray)
Protocol: (§1) • grassy weeds: Digitaria sanguinalis, Eleusine indica, Echinochloa crusgalli; • Broadleaf weeds: Portulaca oleracea, Abutilon theophrasti medicus. 2.2.2 Test Conditions
(§2) The soil used for the test was a mixture of surface 20 cm loam and vermiculite, mixed in a volume ratio of 3:1 to form a culture soil. The test weeds were cultured in a glass greenhouse with a temperature ranging from 25° C. to 35° C. and under natural light.
(§3) Quantified seeds of Digitaria sanguinalis, Eleusine indica, Echinochloa crusgalli, Portulaca oleracea, and Abutilon theophrasti medicus were sown in plastic pots with a diameter of 9 cm, and covered with 1-2 mm of soil. The ports were then placed in enamel trays filled with water, and watered by bottom irrigation. After the water seeped to the soil surface, the pots were transferred to the glass greenhouse for standby.
(§4) Five dosages were set for Compound I, Compound II and the control herbicide Topramezone, which were 3.75, 7.5, 15, 30 and 60 grams of active ingredient per hectare respectively. In addition, a blank control was also prepared.
(§5) The required amount of the herbicide was accurately measured out and directly added with water, which was diluted to the required dosage by using the serial dilution method for standby.
(§6) The test was conducted on grassy weeds at the two-leaf and one-heart stage, Abutilon theophrasti medicus at the 2-true-leaf stage, and Portulaca oleracea at the 3-5-leaf stage, with the stems and leaves both sprayed uniformly. The ASS-4 automatic control spraying system with a fan-shaped nozzle was used indoors for herbicide application. Depending on the nozzle pressure and flow rate, 50 mL of herbicide solution was applied to a spraying area of 1.1 m^2 (which was equivalent to the water consumption of 30 L per mu). The system's operating speed was calibrated. The plastic pots to be treated were arranged evenly on the spraying platform to ensure uniform treatment. The spray pressure was set to 0.35 MPa, and the flow rate of the fan-shaped nozzle was set to 800 mL/min. The spraying was carried out in sequence from the low dosage to the high dosage. Each treatment was repeated two to four times.
(§7) The herbicide was applied once. After spraying, the pots were air-dried for one day and then placed in the glass greenhouse. Regular watering was conducted to maintain moisture.
(§8) The damage symptoms of the weeds (such as growth inhibition, chlorosis, malformation, etc.) were carefully recorded at 3, 7, 10, and 20 days after herbicide application. A visual comparison of the herbicide effectiveness was made. At 20 days post-application, the fresh weight of the aboveground parts of the weeds from each treatment group was measured, and the fresh weight control efficacy was calculated.
(§9) The treatment results were calculated according to the following formula: weed fresh weight control efficacy (%)=(control fresh weight−treatment fresh weight)/control fresh weight×100.
(§10) A DPS statistical software was used to conduct regression analysis on the logarithmic values of the herbicide dosage and the probit values of the weed fresh weight control efficacy, and the correlation coefficient, GR50, GR90, and the 95% confidence interval were calculated.

Echinochloa crusgalli = assay: as above; details: fresh weight control efficacy 20 days post-application
Protocol: as §1, §2, §3, §4, §5, §6, §7, §8, §9, §10

Digitaria sanguinalis = assay: Laboratory rainfastness test (foliar spray, simulated rainfall); details: for Average fresh weight / Control efficacy: 20 days post-application
Protocol: Refer to the “Pesticides guidelines for laboratory bioactivity tests Part 4: Foliar spray application test for herbicide activity, NY/T 1155.4-2006”.
as §2
A measured quantity of Digitaria sanguinalis seeds were sown in plastic pots with a diameter of 9 cm, and covered with 1-2 mm of soil. The ports were then placed in enamel trays filled with water, and watered by bottom irrigation. After the water seeped to the soil surface, the pots were transferred to the glass greenhouse for standby.
as §4, §5
as §6, with “Digitaria sanguinalis” for “grassy weeds”, “one-heart” for “one-heart stage, Abutilon theophrasti medicus at the 2-true-leaf stage, and Portulaca oleracea at the 3-5-leaf”, “repeated” for “repeated two to”
The rainfastness test was set as follows: at 0.5 hours, 1.0 hour, 3.0 hours, and 6.0 hours after the application of the herbicide, the weeds that have already been sprayed with the herbicide were subjected to stem and leaf showering with a specific shower equipment simulating rainfall. Weeds that were not subjected to the showering treatment served as the control group.
The damage symptoms of the weeds (such as growth inhibition, chlorosis, malformation, etc.) were carefully recorded at 3, 7, 10, and 20 days after herbicide application. A visual comparison of the herbicide effectiveness was made after simulated rainfall at different time intervals. At 20 days post-application, the fresh weight of the aboveground parts of the weeds from each treatment group was measured, and the fresh weight control efficacy was calculated.
The treatment results were calculated according to the following formula: weed fresh weight control efficacy (%)=(control fresh weight−treatment fresh weight)/control fresh weight×100. A DPS statistical software was used to conduct regression analysis on the logarithmic values of the herbicide dosage and the probit values of the weed fresh weight control efficacy, and the correlation coefficient, GR50, GR90, and the 95% confidence interval were calculated.

[1] = fresh weight control efficacy 20 days post-application
[2] = No spraying (no simulated rainfall), dosage 3.75 g/hectare
[3] = No spraying (no simulated rainfall), dosage 7.5 g/hectare
[4] = No spraying (no simulated rainfall), dosage 15 g/hectare
[5] = No spraying (no simulated rainfall), dosage 30 g/hectare
[6] = No spraying (no simulated rainfall), dosage 60 g/hectare
[7] = Spraying water 0.5 hour after herbicide application, dosage 3.75 g/hectare
[8] = Spraying water 0.5 hour after herbicide application, dosage 7.5 g/hectare
[9] = Spraying water 0.5 hour after herbicide application, dosage 15 g/hectare
[10] = Spraying water 0.5 hour after herbicide application, dosage 30 g/hectare
[11] = Spraying water 0.5 hour after herbicide application, dosage 60 g/hectare
[12] = Spraying water 1.0 hour after herbicide application, dosage 3.75 g/hectare
[13] = Spraying water 1.0 hour after herbicide application, dosage 7.5 g/hectare
[14] = Spraying water 1.0 hour after herbicide application, dosage 15 g/hectare
[15] = Spraying water 1.0 hour after herbicide application, dosage 30 g/hectare
[16] = Spraying water 1.0 hour after herbicide application, dosage 60 g/hectare
[17] = Spraying water 3.0 hour after herbicide application, dosage 3.75 g/hectare
[18] = Spraying water 3.0 hour after herbicide application, dosage 7.5 g/hectare
[19] = Spraying water 3.0 hour after herbicide application, dosage 15 g/hectare
[20] = Spraying water 3.0 hour after herbicide application, dosage 30 g/hectare
[21] = Spraying water 3.0 hour after herbicide application, dosage 60 g/hectare
[22] = Spraying water 6.0 hour after herbicide application, dosage 3.75 g/hectare
[23] = Spraying water 6.0 hour after herbicide application, dosage 7.5 g/hectare
[24] = Spraying water 6.0 hour after herbicide application, dosage 15 g/hectare
[25] = Spraying water 6.0 hour after herbicide application, dosage 30 g/hectare
[26] = Spraying water 6.0 hour after herbicide application, dosage 60 g/hectare

For `COC(=O)OC(C)Oc1c(C(=O)c2ccc(S(C)(=O)=O)c(C3=NOCC3)c2C)cnn1C` (centres unmarked) [Compound I, 1-((4-(3-(4,5-dihydroisoxazol-3-yl)-2-methyl-4-(methylsulfonyl)benzoyl)-1-methyl-1H-pyrazol-5-yl)oxy)ethyl methyl carbonate], the “Control efficacy compared with Topramezone (in words)” value (Portulaca oleracea) was “significantly better control efficacy”, the “Efficacy relative to that of Topramezone” value (Portulaca oleracea) was “approximately 3.8 times” and the “GR50 (95% confidence interval)” value (Portulaca oleracea; [1]) was 3.83 (2.36-5.16) g a.i./ha. For the same compound, the “GR90 (95% confidence interval)” value (Portulaca oleracea; [1]) was 9.29 (7.46-10.81) g a.i./ha, the GR50 (Echinochloa crusgalli) was 6.03 g a.i./ha and the GR90 (Echinochloa crusgalli) was 11.04 g a.i./ha. It also gave an Average fresh weight (Digitaria sanguinalis; [2]) of 6.3 g, a Control efficacy (Digitaria sanguinalis; [2]) of 3.1% and an Average fresh weight (Digitaria sanguinalis; [3]) of 5.1 g. It also gave a Control efficacy (Digitaria sanguinalis; [3]) of 21.8%, an Average fresh weight (Digitaria sanguinalis; [4]) of 3.2 g and a Control efficacy (Digitaria sanguinalis; [4]) of 50.6%. For the same compound, the Average fresh weight (Digitaria sanguinalis; [5]) was 2.6 g, the Control efficacy (Digitaria sanguinalis; [5]) was 60.5% and the Average fresh weight (Digitaria sanguinalis; [6]) was 1.1 g. The Control efficacy (Digitaria sanguinalis; [6]) was 82.8%, the Average fresh weight (Digitaria sanguinalis; [7]) was 6.1 g and the Control efficacy (Digitaria sanguinalis; [7]) was 6.9%. For the same compound, the Average fresh weight (Digitaria sanguinalis; [8]) was 5.1 g, the Control efficacy (Digitaria sanguinalis; [8]) was 22.2% and the Average fresh weight (Digitaria sanguinalis; [9]) was 3.6 g. The Control efficacy (Digitaria sanguinalis; [9]) was 45.6%, the Average fresh weight (Digitaria sanguinalis; [10]) was 2.6 g and the Control efficacy (Digitaria sanguinalis; [10]) was 60.9%. The Average fresh weight (Digitaria sanguinalis; [11]) was 1.1 g, the Control efficacy (Digitaria sanguinalis; [11]) was 82.8% and the Average fresh weight (Digitaria sanguinalis; [12]) was 6.1 g. For the same compound, the Control efficacy (Digitaria sanguinalis; [12]) was 7.3%, the Average fresh weight (Digitaria sanguinalis; [13]) was 5.2 g and the Control efficacy (Digitaria sanguinalis; [13]) was 21.1%. The Average fresh weight (Digitaria sanguinalis; [14]) was 3.9 g, the Control efficacy (Digitaria sanguinalis; [14]) was 41.0% and the Average fresh weight (Digitaria sanguinalis; [15]) was 2.3 g. It also gave a Control efficacy (Digitaria sanguinalis; [15]) of 64.8%, an Average fresh weight (Digitaria sanguinalis; [16]) of 0.9 g and a Control efficacy (Digitaria sanguinalis; [16]) of 86.6%. For the same compound, the Average fresh weight (Digitaria sanguinalis; [17]) was 5.6 g, the Control efficacy (Digitaria sanguinalis; [17]) was 14.9% and the Average fresh weight (Digitaria sanguinalis; [18]) was 4.7 g. It also gave a Control efficacy (Digitaria sanguinalis; [18]) of 28.7%, an Average fresh weight (Digitaria sanguinalis; [19]) of 3.3 g and a Control efficacy (Digitaria sanguinalis; [19]) of 50.2%. The Average fresh weight (Digitaria sanguinalis; [20]) was 2.7 g, the Control efficacy (Digitaria sanguinalis; [20]) was 58.2% and the Average fresh weight (Digitaria sanguinalis; [21]) was 0.9 g. The Control efficacy (Digitaria sanguinalis; [21]) was 86.6%, the Average fresh weight (Digitaria sanguinalis; [22]) was 6.0 g and the Control efficacy (Digitaria sanguinalis; [22]) was 8.4%. The Average fresh weight (Digitaria sanguinalis; [23]) was 5.0 g, the Control efficacy (Digitaria sanguinalis; [23]) was 23.4% and the Average fresh weight (Digitaria sanguinalis; [24]) was 2.7 g. It also gave a Control efficacy (Digitaria sanguinalis; [24]) of 58.6%, an Average fresh weight (Digitaria sanguinalis; [25]) of 2.3 g and a Control efficacy (Digitaria sanguinalis; [25]) of 64.4%. For the same compound, the Average fresh weight (Digitaria sanguinalis; [26]) was 1.1 g, the Control efficacy (Digitaria sanguinalis; [26]) was 82.8% and the “Rainfastness compared with Topramezone (in words)” value (Digitaria sanguinalis; in vivo) was “significantly better rainfastness”. The “Effect of rain on control efficacy (in words)” value (Digitaria sanguinalis; rain 0.5 h, 1.0 h and 3.0 h after application) was “remained stable” and the “Effect of rain on control efficacy (in words)” value (Digitaria sanguinalis; rain 0.5 h after application) was “little impact; also recorded: almost unaffected”.
